The structures appear in SMILES notation. Where a name gives a salt, the structure may show the parent alone.

A word on the melting point: it is the temperature of the solid-liquid transition. `O=C(O)c1nc2cc(Oc3cccc([N+](=O)[O-])c3)c([N+](=O)[O-])cc2[nH]c1=O`: the melting point was 198 to 200 °C (dec.).
With `O=C(O)c1nc2cc(CN3CCOCC3)c([N+](=O)[O-])cc2[nH]c1=O` (as salt: hydrochloride) [Example 160, 3,4-Dihydro-7-(morpholine-1-yl)methyl-6-nitro-3-oxoquinoxaline-2-carboxylic Acid Hydrochloride], the melting point is 209 to 211 °C (dec.).
Take `O=C(NCc1cn(-c2cc3nc(C(=O)O)c(=O)[nH]c3cc2[N+](=O)[O-])cn1)Nc1ccc(C(=O)O)cc1` (as salt: salt) [Example 119, 7-(4-(((4-Carboxyphenyl)aminocarbonylamino)methyl)imidazolyl)-3,4-dihydro-6-nitro-3-oxoquinoxaline-2-carboxylic Acid]: the melting point was 300 °C (dec.).
On to `O=C(NCc1cn(-c2cc3nc(C(=O)O)c(=O)[nH]c3cc2C(F)(F)F)cn1)Nc1ccc(C(=O)O)cc1` (as salt: salt) [Example 207, 7-(4-(((4-Carboxyphenyl)aminocarbonylamino)methyl)imidazole-1-yl)-3,4-dihydro-3-oxo-6-trifluoromethylquinoxaline-2-carboxylic Acid], for which the melting point is 255 °C (dec.).
The same measure for `O=C(O)c1nc2cc(N3CCN(c4ccc(F)cc4)CC3)c([N+](=O)[O-])cc2[nH]c1=O` [Example 54, 3,4-Dihydro-7-(4-(4-fluorophenyl)piperazine-1-yl)-6-nitro-3-oxoquinoxaline-2-carboxylic Acid]: 235.5 to 237.5 °C; for `COc1ccccc1N1CCN(c2cc3nc(C(=O)O)c(=O)[nH]c3cc2[N+](=O)[O-])CC1` [Example 59, 3,4-Dihydro-7-(4-(2-methoxyphenyl)piperazine-1-yl)-6-nitro-3-oxoquinoxaline-2-carboxylic Acid]: 204 to 206 °C.
The same measure for `O=C(O)c1nc2cc(N3CCN(Cc4ccccc4)CC3)c([N+](=O)[O-])cc2[nH]c1=O` [Example 60, 7-(4-Benzylpiperazine-1-yl)-3,4-dihydro-6-nitro-3-oxoquinoxaline-2-carboxylic Acid]: 278 to 280 °C; for `O=C(O)c1nc2cc(N3CCC(O)CC3)c([N+](=O)[O-])cc2[nH]c1=O` [Example 61, 3,4-Dihydro-7-(4-hydroxypiperidine-1-yl)-6-nitro-3-oxoqinoxaline-2-carboxylic Acid]: 253 to 255 °C.
Turning to `CN(C)Cc1cc2nc(C(=O)O)c(=O)[nH]c2cc1[N+](=O)[O-]` [Example 67, 3,4-Dihydro-7-dimethylaminomethyl-6-nitro-3-oxoquinoxaline-2-carboxylic Acid], the melting point is over 300 °C.
In turn, `NC(=O)c1nc2cc(F)c([N+](=O)[O-])cc2[nH]c1=O` [Example 69, 3,4-Dihydro-7-fluoro-6-nitro-3-oxoquinoxaline-2-carboxamide] had a melting point of over 300 °C.
Molecule `NC(=O)c1nc2cc(-n3ccc(=O)cc3)c([N+](=O)[O-])cc2[nH]c1=O` [Example 70, 3,4-Dihydro-6-nitro-3-oxo-7-(4-pyridone-1-yl)quinoxaline-2-carboxamide] showed a melting point of over 300 °C.
Consider `Nc1cc2[nH]c(=O)c(C(=O)O)nc2cc1F` [Example 72, 6-Amino-3,4-dihydro-7-fluoro-3-oxoquinoxaline-2-carboxylic Acid], for which the melting point was over 300 °C.
The same measure for `O=C(NCc1ccn(-c2cc3nc(C(=O)O)c(=O)[nH]c3cc2C(F)(F)F)c1)Nc1ccc(C(=O)O)cc1` [Example 79, 7-(3-(((4-Carboxyphenyl)aminocarbonylamino)-methyl)pyrrole-1-yl)-3,4-dihydro-3-oxo-6-trifluoromethylquinoxaline-2-carboxylic Acid]: 234 to 236 °C (dec.); for `O=C(NCc1ccn(-c2cc3nc(C(=O)O)c(=O)[nH]c3cc2C(F)(F)F)c1)Nc1ccc(C(=O)O)cc1F` [Example 80, 7-(3-(((4-Carboxy-2-fluorophenyl)aminocarbonylamino)-methyl)pyrrole-1-yl)-3,4-dihydro-3-oxo-6-trifluoromethylquinoxaline-2-carboxylic Acid]: 249 to 251 °C (dec.); for `O=C(Nc1ccc(Br)cc1)OCc1cn(-c2cc3nc(C(=O)O)c(=O)[nH]c3cc2[N+](=O)[O-])cn1` [Example 86, 7-(4-((N-(4-Bromophenyl)carbamoyloxy)methyl)imidazolyl)-3,4-dihydro-6-nitro-3-oxoquinoxaline-2-carboxylic Acid]: 270 to 272 °C (dec.).
The result for `COc1ccc(NC(=O)OCc2cn(-c3cc4nc(C(=O)[O-])c(=O)[nH]c4cc3[N+](=O)[O-])cn2)cc1.[Na+]` [Example 108] reads 265 to 267 °C (dec.); that for `O=C(Nc1cccc(C(=O)O)c1)OCc1cn(-c2cc3nc(C(=O)O)c(=O)[nH]c3cc2[N+](=O)[O-])cn1` [Example 116, 7-(4-((N-(3-Carboxyphenyl)carbamoyloxy)methyl)imidazolyl)-3,4-dihydro-6-nitro-3-oxoquinoxaline-2-carboxylic Acid], 272 to 274 °C (dec.).
Molecule `O=C(NCc1cn(-c2cc3nc(C(=O)O)c(=O)[nH]c3cc2[N+](=O)[O-])cn1)Nc1ccccc1F` [Example 118, 3,4-Dihydro-7-(4-(((2-fluorophenyl)aminocarbonylamino)methyl)imidazolyl)-6-nitro-3-oxoquinoxaline-2-carboxylic Acid] displayed a melting point of 300 °C.
The same measure for `O=C(Nc1cccc(C(=O)O)c1)OCc1cn(-c2cc3nc(C(=O)O)c(=O)[nH]c3cc2[N+](=O)[O-])ccc1=O` [Example 125, 7-(3-((N-(3-Carboxyphenyl)carbamoyloxy)methyl)-4-pyridone-1-yl)-3,4-dihydro-6-nitro-3-oxoquinoxaline-2-carboxylic Acid]: 250 to 252 °C (dec.); for `O=C(Nc1ccc(Br)cc1)Nc1cn(-c2cc3nc(C(=O)O)c(=O)[nH]c3cc2[N+](=O)[O-])ccc1=O` [Example 128, 7-(3-((4-Bromophenyl)aminocarbonylamino)-4-pyridone-1-yl)-3,4-dihydro-6-nitro-3-oxoquinoxaline-2-carboxylic Acid]: 252 to 254 °C (dec.); for `O=C(Nc1ccccc1)Nc1cn(-c2cc3nc(C(=O)O)c(=O)[nH]c3cc2[N+](=O)[O-])ccc1=O` [Example 129, 3,4-Dihydro-6-nitro-3-oxo-7-(3-(phenylaminocarbonylamino)-4-pyridone-1-yl)quinoxaline-2-carboxylic Acid]: 282 to 284 °C (dec.).
On to `O=C(Cc1ccc(Br)cc1)Nc1cn(-c2cc3nc(C(=O)O)c(=O)[nH]c3cc2[N+](=O)[O-])ccc1=O` [Example 136, 7-(3-((4-Bromobenzyl)carbonylamino)-4-pyridone-1-yl)-3,4-dihydro-6-nitro-3-oxoquinoxaline-2-carboxylic Acid], for which the melting point is 240 to 242 °C (dec.).
On to `O=C(c1nc2cc(N3CCOCC3)c([N+](=O)[O-])cc2[nH]c1=O)N1CCOCC1` [Example 138, 3,4-Dihydro-7-morpholino-6-nitro-3-oxoquinoxaline-2-carboxylic Morpholineamide], for which the melting point lay within 298 to 299 °C.
With `Nc1cn(-c2cc3nc(C(=O)O)c(=O)[nH]c3cc2[N+](=O)[O-])ccc1=O` [Example 142, 7-(3-Amino-4-pyridone-1-yl)-3,4-dihydro-6-nitro-3-oxoquinoxaline-2-carboxylic Acid], the melting point is over 300 °C.

Source of the values: US6348461B1, “6,7-asymmetrically disubstituted quinoxalinecarboxylic acid derivatives, addition salts thereof, and processes for the preparation of both” (Kyorin Pharmaceutical Co., Ltd., priority 1997, dated 2002).
